Assay results: paper PMC12778052 (Science Advances, 2026)

Experiments:
SCaBER cells [1] = test: [^68Ga]AJ647 binding after EV preincubation, SCaBER cells; assay type: cell-based; settings: EV 60 nM preincubated 30 min, P < 0.0001
Method: (§1) An FITC analog of EV was made using the manufacturer’s recommended protocol (Thermo Fisher Scientific, no. 46409). Briefly, 1 mg of EV was incubated with FITC-NHS ester at a 5:1 molar ratio overnight at 4°C at 0.1 M borate buffer (pH 8.0). Excess unbound FITC-NHS ester was washed off by performing buffer exchange with 1× PBS using three rounds of ultracentrifugation at 4000g for 10 min (3-kDa molecular weight cutoff filter, Amicon, no. UFC900308). The effect of nonradioactive AJ647 on EV binding to Nectin-4 was assessed by incubating HT1376 cells at varying concentrations (5.4 μM to 0.01 nM using a serial dilution) of AJ647 for 30 min at 4°C. Unbound AJ647 was washed off using 3 ml of cold PBS. Cells were incubated with EV-FITC for 30 min at 4°C. Excess EV-FITC was washed off using 3 ml of cold PBS. The mean fluorescence intensity was measured using a flow cytometer, and data are reported as the percentage of 0 nM AJ647. For the effect of EV on [^68Ga]AJ647 binding, EV was used at concentrations of 90 to 0.04 nM using serial dilutions for 30 min at 4°C. Unbound EV was washed off using cold PBS. Then, cells were incubated with 1 μCi of [^68Ga]AJ647 for an additional 30 min. Excess [^68Ga]AJ647 was washed off three times with cold PBS. Samples were read in an automated gamma counter, and data are reported as the percentage of 1-μCi standard counts.

HT1376 tumors = test: Pilot in vivo EV effect on tumor uptake of [^68Ga]AJ647, HT1376 tumors; set-up: species or system NSG mice; settings: EV 20 mg/kg i.v. single dose, 24 hours before tracer, ex vivo 60 min, n = 5
Method: (§2) Male NSG mice were implanted subcutaneously with HT1376 and SCaBER cells (4 million each) on the right and left rostral ends, respectively. On day 25 after cell inoculation (average tumor volume, 200 ± 35 mm^3), mice were randomized and treated with a single dose of either saline or EV ADC (20 mg/kg) injected intravenously (volume not exceeding 300 μl) or with 200 μl of saline (n = 7 per group). Twenty-four hours following the EV dose, [^68Ga]AJ647 PET scans (n = 2 per group) were acquired, and ex vivo biodistribution (n = 5 per group) was performed using the protocols mentioned above.

SCaBER tumors = test: Pilot in vivo EV effect on tumor uptake of [^68Ga]AJ647, SCaBER tumors; set-up: species or system NSG mice; settings: EV 20 mg/kg i.v. single dose, 24 hours before tracer, ex vivo 60 min, n = 5
Method: as §2

T24 cells [2] = test: [^68Ga]AJ647 binding after EV preincubation, T24 cells; assay type: cell-based; settings: T24 (Nectin-4-negative); EV 60 nM preincubated 30 min
Method: as §1

[3] = lowest exposure (Cavg) quartile; cited from earlier work
Excerpt: Real-time assessment of tumor heterogeneity remains a critical challenge in optimizing targeted therapies. Despite the importance of sensitive assays for real-time insights into drug-tumor interactions, such tools remain limited ([6], [25]). Model-based approaches that integrate nonclinical and clinical data—such as PK and PD parameters—can facilitate efficacy and safety predictions ([26]). However, these models often fail to fully account for the dynamic complexities of tumor heterogeneity and intrinsic factors that affect drug PK/PD, especially in real time. This is particularly true for mac ...

T24 cells [4] = test: In vitro binding of [^68Ga]AJ647 to T24 cells; assay type: cell-based; settings: T24 (low Nectin-4); 1 × 10^6 cells, ~1 μCi, 30 min, 4°C; means ± SD, n = 4
Method: (§3) In vitro binding of [^68Ga]AJ647 to T24, SCaBER, RT112, UC9, UC14, and HT1376 cells was determined by incubating 1 × 10^6 cells with ~1 μCi of [^68Ga]AJ647 for 30 min at 4°C. After incubation, cells were washed three times with ice-cold PBS containing 0.1% Tween 20 and counted on an automated gamma counter. All cell radioactivity uptake studies were performed in quadruplicate for each cell line and repeated three times.

UC14 cells = test: In vitro binding of [^68Ga]AJ647 to UC14 cells; assay type: cell-based; settings: 1 × 10^6 cells, ~1 μCi, 30 min, 4°C, means ± SD, n = 4
Method: as §3

SCaBER cells [5] = test: In vitro binding of [^68Ga]AJ647 to SCaBER cells; assay type: cell-based; settings: 1 × 10^6 cells, ~1 μCi, 30 min, 4°C, means ± SD, n = 4
Method: as §3

UC9 cells = test: In vitro binding of [^68Ga]AJ647 to UC9 cells; assay type: cell-based; settings: 1 × 10^6 cells, ~1 μCi, 30 min, 4°C, means ± SD, n = 4
Method: as §3

HT1376 cells = test: In vitro binding of [^68Ga]AJ647 to HT1376 cells; assay type: cell-based; settings: 1 × 10^6 cells, ~1 μCi, 30 min, 4°C, means ± SD, n = 4
Method: as §3

RT112 cells = test: In vitro binding of [^68Ga]AJ647 to RT112 cells; assay type: cell-based; settings: 1 × 10^6 cells, ~1 μCi, 30 min, 4°C, means ± SD, n = 4
Method: as §3

| Molecule | effect on [^68Ga]AJ647 binding (SCaBER cells [1]) | reduction in [^68Ga]AJ647 tumor uptake vs saline controls (HT1376 tumors) [%] | reduction in [^68Ga]AJ647 tumor uptake vs saline controls (SCaBER tumors) [%] | effect on [^68Ga]AJ647 binding (T24 cells [2]) | response rate [3] [%] | [^68Ga]AJ647 uptake (T24 cells [4]) [%IA] | [^68Ga]AJ647 uptake (UC14 cells) [%IA] | [^68Ga]AJ647 uptake (SCaBER cells [5]) [%IA] | [^68Ga]AJ647 uptake (UC9 cells) [%IA] | [^68Ga]AJ647 uptake (HT1376 cells) [%IA] | [^68Ga]AJ647 uptake (RT112 cells) [%IA] |
| --- | --- | --- | --- | --- | --- | --- | --- | --- | --- | --- | --- |
| enfortumab vedotin [EV] | significantly reduced [^68Ga]AJ647 binding | 84 | 72 | but not in Nectin-4–negative T24 cells | 32 |  |  |  |  |  |  |
| CSCC[C@@H]1NC(=O)[C@@H]2CSCCC(=O)N3CN(CN(C3)C(=O)CCSC[C@H](NC(=O)CCOCCOCCOCCOCCOCCOCCOCCOCCOCCOCCOCCOCCNC(=O)CN3CCN(CC(=O)O)CCN(CC(=O)O)CC3)C(=O)N3CCC[C@H]3C(=O)N[C@@H](Cc3cccc4ccccc34)C(=O)N[C@@H](CC(=O)O)C(=O)N2)C(=O)CCSC[C@@H](C(N)=O)NC(=O)[C@H](Cc2c[nH]c3ccccc23)NC(=O)[C@@H]2C[C@@H](O)CN2C(=O)[C@@H]2CCCN2C(=O)[C@H]([C@@H](C)O)NC(=O)[C@H](CO)NC(=O)[C@H](Cc2c[nH]c3ccccc23)NC(=O)[C@@H](CC(=O)O)NC(=O)[C@H](CCCCNC(=N)N)NC1=O [[^68Ga]AJ647, metal not drawn] |  |  |  |  |  | 0.2 ± 0.11 | 3.0 ± 0.42 | 1.6 ± 0.13 | 2.2 ± 0.48 | 6.5 ± 0.52 | 1.9 ± 0.18 |
